Test system: Jurkat clone E6.1 cells
Test: Antigen-induced (anti-CD3 mAb) calcium flux in Jurkat clone E6.1 cells
Assay type: cell-based
Details: 20 μM; anti-CD3 mAb 4 μg/mL; Fura 2AM
Description: Elevation of cytoplasmic calcium concentration is a common and crucial event which follows the activation of many types of cell surface receptors. Increases in intracellular calcium that occur following agonist activation of inositol lipid hydrolysis are the results of calcium release from the endoplasmic reticulum and the influx of calcium through the plasma membrane. Increases in cytosolic calcium concentration are involved in many important cellular responses in the inflammatory process including adhesion, motility, gene expression, proliferation, and degranulation. Changes in intracellular calcium centrations can affect both short and long term cellular responses. An assay method to evaluate a test compound's impact on calcium flux is provided as follows.
The resulting supernatants are discarded and each pellet is washed in 10 mL HBSS. Cell suspensions are accumulated and centrifuged for 5 minutes at 900 RPM to form a cell pellet. The resulting supernatant is discarded and the pellet is resuspended in HBSS at 1×10^7 cells/mL. The cell suspension is transferred to a 20 mm petri dish and incubated at 37° C., 5% CO2 for 20 minutes.
One volume of Fura 2AM is mixed to one volume of detergent Pluronic F127. Cells are labeled with 4 μL of probe solution to each mL of cell suspension. The petri dish is wrapped in aluminum foil to protect from light and placed on a plate shaker for 30 minutes at room temperature.
The following steps are done in the laminar flow hood with the fluorescent lights turned off. The petri dish is removed from the shaker and the labeled cell suspension is transferred to a 15 mL conical tube and washed twice with HBSS as above. The cell pellet is resuspended in 12 mL HBSS and left wrapped in foil for 30 minutes at room temperature. The labeled cell suspension is aliquoted (100 μL/well) into a Dynex 96 well white opaque tissue culture plate. […] Selected compounds were tested for dose related activity. Test samples and activator (anti—CD3 mAb at final concentration of 4 μg/mL, PharMingen) are added manually (50 μL), such that the minimum time to acquire the first data point after stimulation is approximately 30 seconds. The calcium influx response to anti-CD3 mAb is measured as an “end point” assay. The entire plate is read in 100 seconds using a kinetic of 1 second per well.
The plate is read before the addition of anti-CD3 to monitor non-specific effect of samples/drugs. Fluorescence emission is measured at 510 nm with excitation alternating between 340 and 380 every second using an excitation/emission filter pair. Data from these dual wavelengths are represented as a ratio of 2 excitations wavelengths. This ratio is independent of intracellular dye and cell concentrations, enabling real comparison between experiments.

| SMILES | Calcium (% inhibition at 20 μM) [%] |
| --- | --- |
| CC=C1CCC2C3C(CC[C@]12C)[C@@]1(C)CCC(N)CC1[C@@H](O)[C@@H]3O (stereo partly drawn) [Compound 49] | 26.8 |
| C=C1CCC2C3C(CC[C@]12C)[C@@]1(C)CCC(N)CC1[C@@H](OC)[C@@H]3OC (stereo partly drawn) [Compound 79] | 9.1 |
| CCC1CCC2C3C(CC[C@]12C)[C@@]1(C)CCC(N)CC1[C@@H](O)[C@@H]3O (stereo partly drawn) [Compound 97] | 43.0 |
| C=C1CCC2C3C(O)C(O)C4CC(NCc5cccnc5)CCC4(C)C3CCC12C.Cl.Cl (stereo not drawn) [Compound 107] | 11.6 |
| C=C1CCC2C3C(CC[C@]12C)[C@@]1(C)CC[C@@H](NC(=O)NCCC)CC1[C@@H](O)[C@@H]3O (stereo partly drawn) [Compound 138] | 9.0 |
| CC1(C)CCC2=C1CCC1C2[C@@H](O)[C@H](O)C2C[C@@H](N)CC[C@]12C (stereo partly drawn) [Compound 139] | 26.3 |
| CC1(C)CCC2=C1CCC1C2C(O)C(O)C2CC(NCc3ccc(F)c(F)c3)CCC21C.Cl (stereo not drawn) [Compound 141] | 36.3 |

Test system: rat mast cell line (RBL-2H3)
Test: Antigen-induced release of hexosaminidase from a rat mast cell line (RBL-2H3)
Assay type: cell-based
Details: inhibition of DNP-HSA antigen-induced hexosaminidase release; tested at 0.3, 3, 10 and 30 μM; read-out: Hex IC50
Experimental: The anti-allergic effects of a compound of the present invention was evaluated by measuring its effect on antigen-induced secretion of hexosaminidase from a passively sensitized rat mast cell line. The ability of a test compound to inhibit the release of mast cell granule contents, e.g., histamine and hexosaminidase, is indicative of the anti-allergy and/or anti-asthma activity of the compound. Hexosaminidase is released from the mast cell granule along with histamine and other mediators during antigen challenge. The test is performed as follows.
RBL-2H3 cells are grown in culture and passively sensitized for 1 hour at 37° C. to dinitrophenol (DNP) using anti-human-DNP (IgE). Cells are incubated with test compound for 30 minutes at 37° C. and stimulated with 0.5 μg/ml DNP-HSA (antigen) for 30 minutes. Aliquots of the supernatant are removed and used to measure the amount of hexosaminidase released during challenge with the antigen. […] The effect of each test compound is determined as a percentage of the antigen-induced response (minus background release) obtained in the presence of DMSO alone. These values are used to determine the degrees of inhibition of antigen-induced hexosaminidase release from the cells.

| SMILES | IC50 [µM] |
| --- | --- |
| CC=C1CCC2C3C(CC[C@]12C)[C@@]1(C)CCC(N)CC1[C@@H](O)[C@@H]3O (stereo partly drawn) [Compound 49] | 11 |
| C=C1CCC2C3C(CC[C@]12C)[C@@]1(C)CCC(N)CC1[C@@H](OC)[C@@H]3OC (stereo partly drawn) [Compound 79] | 18.4 |
| CCC1CCC2C3C(CC[C@]12C)[C@@]1(C)CCC(N)CC1[C@@H](O)[C@@H]3O (stereo partly drawn) [Compound 97] | 9.3 |
| C=C1CCC2C3C(O)C(O)C4CC(NCc5cccnc5)CCC4(C)C3CCC12C.Cl.Cl (stereo not drawn) [Compound 107] | 17.2 |
| C=C1CCC2C3C(CC[C@]12C)[C@@]1(C)CC[C@@H](NC(=O)NCCC)CC1[C@@H](O)[C@@H]3O (stereo partly drawn) [Compound 138] | 15 |
| CC1(C)CCC2=C1CCC1C2[C@@H](O)[C@H](O)C2C[C@@H](N)CC[C@]12C (stereo partly drawn) [Compound 139] | 10.3 |
| CC1(C)CCC2=C1CCC1C2C(O)C(O)C2CC(NCc3ccc(F)c(F)c3)CCC21C.Cl (stereo not drawn) [Compound 141] | 9.4 |

Test system: not listed separately
Test: Metabolic stability in human liver S9 fractions
Assay type: in vitro ADME
Details: 10 μM, 37° C., 15 min incubation, relative to 0 minute incubation
Description: The therapeutic effectiveness of a test compound can be often directly related to its metabolic stability in vivo. The majority of known, marketed drugs are metabolized by a group of enzymes known as P450 enzymes. The S9 fraction of human liver contains all the P450 enzymes and also cytoplasmic enzymes that may be involved in the metabolism of new chemical entities. Metabolism in vitro using human S9 fractions is a standard assay to evaluate relative metabolic stability of new compounds. The test is performed as follows.
Reagents are thawed on ice and combined to make up a Master Mix as follows: Potassium phosphate (100 mM, pH 7), G6P (0.25 mM), G6PDH (2 U/ml), NADPH (1 mM), UDP (0.25 mM), APPS (0.25 mM), and S9 fraction (2 mg/ml). A volume of 498 μl of the Master mix is dispensed into each microcentrifuge tube. A volume of 2 μl of 2.5 mM test compound (final concentration of 10 μM) is dispensed into the center of the lid of the appropriate tube, and the lids gently closed to prevent mixing. Synchronous combination of test compound and master mix is achieved by simultaneous ten times inversion of the tubes, which are then incubated at 37° C. and shaken at 150 rpm for the appropriate incubation times. While incubation is in progress, all 0 time samples are mixed individually by three times inversion followed by the immediate addition of 500 μl ice cold acetonitrile with three times inversion to stop the reaction. Immediately after each 15 minutes and 30 minutes incubation is complete, ice cold acetonitrile is added to each tube and the tubes mixed by three times inversion. All sample tubes are incubated at −80° C. for a minimum of 15 minutes, thawed and remixed by inversion. Aliquots of 650 μl are transferred to Chromatographic Specialties micro-spin filter system tubes (0.2 μm nylon membrane, C618505) and centrifuged at 13,000 rpm for 48 seconds. The sample filtrates are stored at −80° C.
Sample filtrates are analyzed on LCMS, and percent remaining after 15 and 30 minute incubation is calculated relative to the 0 minute incubation.
The metabolic stability of various compounds are summarized in Table 10 as the percent remaining after 15 or 30 minutes incubation with human liver S9 fractions.

| SMILES | % remaining after 15 min [%] |
| --- | --- |
| CC1(C)CCC2=C1CCC1C2[C@@H](O)[C@H](O)C2C[C@@H](N)CC[C@]12C (stereo partly drawn) [Compound 139] | 100 |
| CC1(C)CCC2=C1CCC1C2C(O)C(O)C2CC(NCc3ccc(F)c(F)c3)CCC21C.Cl (stereo not drawn) [Compound 141] | 100 ± 9 |

Same assay, conditions: 10 μM, 37° C., 30 min incubation, relative to 0 minute incubation

| SMILES | % remaining after 30 min [%] |
| --- | --- |
| CC1(C)CCC2=C1CCC1C2[C@@H](O)[C@H](O)C2C[C@@H](N)CC[C@]12C (stereo partly drawn) [Compound 139] | 100 |
| CC1(C)CCC2=C1CCC1C2C(O)C(O)C2CC(NCc3ccc(F)c(F)c3)CCC21C.Cl (stereo not drawn) [Compound 141] | 26 ± 4 |

Same assay, conditions: human, s9, 15 min, 10 μM, pH 7

| SMILES | % remaining after 15 min [%] |
| --- | --- |
| CC=C1CCC2C3C(CC[C@]12C)[C@@]1(C)CCC(N)CC1[C@@H](O)[C@@H]3O (stereo partly drawn) [Compound 49] | 93 ± 6 |
| C=C1CCC2C3C(CC[C@]12C)[C@@]1(C)CCC(N)CC1[C@@H](OC)[C@@H]3OC (stereo partly drawn) [Compound 79] | 67 ± 6 |
| CCC1CCC2C3C(CC[C@]12C)[C@@]1(C)CCC(N)CC1[C@@H](O)[C@@H]3O (stereo partly drawn) [Compound 97] | 94 ± 10 |

Same assay, conditions: human, s9, 30 min, 10 μM, pH 7

| SMILES | % remaining after 30 min [%] |
| --- | --- |
| CC=C1CCC2C3C(CC[C@]12C)[C@@]1(C)CCC(N)CC1[C@@H](O)[C@@H]3O (stereo partly drawn) [Compound 49] | 85 ± 8 |
| C=C1CCC2C3C(CC[C@]12C)[C@@]1(C)CCC(N)CC1[C@@H](OC)[C@@H]3OC (stereo partly drawn) [Compound 79] | 61 ± 14 |
| CCC1CCC2C3C(CC[C@]12C)[C@@]1(C)CCC(N)CC1[C@@H](O)[C@@H]3O (stereo partly drawn) [Compound 97] | 89 ± 12 |

Test system: sensitized Brown Norway rats
Test: Ovalbumin-induced accumulation of inflammatory cells in lung lavage fluid of sensitized Brown Norway rats
Assay type: in vivo, rat
Details: 1 mg/kg/day for 4 days, p.o., corn oil vehicle; relative to control animals
Experimental: The ability of a compound to inhibit the allergen-induced accumulation of inflammatory cells such as eosinophils and neutrophils in the lavage fluid obtained from sensitized animals is indicative of that compound's anti-asthma activity. […] The test is conducted as follows.
Male Brown Norway rats are sensitized to ovalbumin by single intraperitoneal injection of 1 mg ovalbumin adsorbed to 100 mg A(OH)3 (alum) in 1 ml sterile saline (saline control rats receive only sterile saline) on day 1, and allowed to sensitize until day 21. […] Rats are challenged with 0.5% ovalbumin in saline generated using a Devillbis nebulizer for 60 min on day 21.
Forty-eight hrs after challenge, animals are sacrificed with an overdose of intraperitoneally-delivered sodium pentobarbitol and the lungs are lavaged with cold 2×7 ml phosphate buffered saline. The recovered lavage fluid is placed on ice. The bronchoalveolar lavage fluid is centrifuged and the supernatant removed. The pellet is resuspended in phosphate buffered saline at 4° C. Cytospins are prepared and stained for differentiation and enumeration of cell types.
Test compound was administered in 300 μl corn oil (Tables 7 and 8) or water (Table 9), which were used as vehicles. Control animals received 300 μl corn oil or water alone, i.e., no drug. […] A negative value in Table 7, 8, or 9 indicates an exacerbation of the effect over the control animal.

| SMILES | % inhibition of eosinophils [%] | % inhibition of lymphocytes [%] | % inhibition of neutrophils [%] |
| --- | --- | --- | --- |
| C=C1CCC2C3C(O)C(O)C4CC(NCc5cccnc5)CCC4(C)C3CCC12C.Cl.Cl (stereo not drawn) [Compound 107] | −122 | −28 | 23 |
| C=C1CCC2C3C(CC[C@]12C)[C@@]1(C)CC[C@@H](NC(=O)NCCC)CC1[C@@H](O)[C@@H]3O (stereo partly drawn) [Compound 138] | −52 | 33 | 35 |

Same assay, conditions: 5 mg/kg/day for 4 days, p.o., corn oil vehicle; relative to control animals

| SMILES | % inhibition of eosinophils [%] | % inhibition of lymphocytes [%] | % inhibition of neutrophils [%] |
| --- | --- | --- | --- |
| CC=C1CCC2C3C(CC[C@]12C)[C@@]1(C)CCC(N)CC1[C@@H](O)[C@@H]3O (stereo partly drawn) [Compound 49] | 52 | 73 | 36 |
| CCC1CCC2C3C(CC[C@]12C)[C@@]1(C)CCC(N)CC1[C@@H](O)[C@@H]3O (stereo partly drawn) [Compound 97] | 40 | 56 | 52 |

— patent US6635629B2, “3-nitrogen-6,7-dioxygen steroids and uses related thereto” (Inflazyme Pharmaceuticals Ltd., priority 2000, dated 2003)
